Experimental data published in patent US20250282817A1, “COMPOUNDS FOR DELIVERING GLUTATHIONE TO A TARGET AND METHODS OF MAKING AND USING THE SAME” (priority 2016, published 2025).

Columns and labels:
cells = assay: Oxygen consumption rate (OCR) after 3HP-dependent GSH loss (FIG. 6); type: cell-based
hepatocytes = assay: Menadione toxicity to hepatocytes from young and old rats (percent viability, LC50); type: cell-based, rat
Excerpt: (§1) Hepatocytes isolated from an old rat have 60% less mitochondrial GSH than that seen in young adult animals. In this example, menadione was used as a redox cycler, to stress mitochondria in hepatocytes, as GSH-dependent mechanisms can be involved its detoxification. […] The increased vulnerability to menadione has been linked to the loss of GSH resulting from the decline in GSH synthesis capacity.
(§2) Menadione treatment alone served as the positive control.

[1] = as above; type: cell-based, rat; conditions: rat
Excerpt: as §1, §2

[2] = tested on: hepatocytes from aged rats; conditions: triphenylphosphonium alone
Procedure: Menadione treatment alone served as the positive control. Viability in untreated hepatocytes also was measured over two hours.

mice = assay: Effect of mitoGSH in animals: i.p. injection of TPP-GSSG, 48 hour observation, liver chemistry profile; type: in vivo; conditions: 3.8 mg/kg i.p.
Procedure: Three seven-month-old female non-transgenic mice (approximately 30 g each) were injected i.p. with 3.8 mg/kg TPP-GSSG in 100 μL/mouse. TPP-GSSG was initially solubilized in DMF and later diluted in millipure water to 5.3% (v/v) dimethylformamide for injection. […] All mice gained weight (0.1 g-2.3 g) over the 48 hour period. Blood was collected via brachial cut, spun down to collect plasma and then delivered to OSU Veterinary Diagnostic Laboratory for a small animal liver chemistry profile.

C=CC(O)CC(=O)O (stereo not drawn) [3HP, 3-hydroxy-4-pentenoate]
basal respiration, ATP turnover, proton leak, non-mitochondrial respiration (OCR) (cells; 3HP-dependent GSH loss): does not alter
respiratory capacity (OCR) (cells; higher levels of 3HP treatment): increasingly lost

CC1=CC(=O)c2ccccc2C1=O [menadione]
CC50 (hepatocytes; hepatocytes from old rats): 232 µM
CC50 (hepatocytes; hepatocytes from young rats): 401 µM
CC50 ([1]; isolated hepatocytes from old rats, hepatocytes from old rats): 300 µM
CC50 ([1]; isolated hepatocytes from young rats, hepatocytes from young rats): ~500 µM

Triphenylphosphonium
effect on hepatocyte viability [2]: did not affect viability

Triphenylphosphonium glutathione disulfide tetraethyl ester [TPP-GSSG]
health and activity of mice (mice; 48 hours, female non-transgenic mice): no detrimental effects observed
small animal liver chemistry profile (plasma) (mice; after 48 hours): No liver damage or abnormalities were detected
